Experiment [1] has as its target T1, human H1 (Homo sapiens, UniProt P35367).
T1 construct: host or cells: CHO-K1, also expressing mitochondrion-targeted aequorin
The experiment is described as follows: In vitro histamine H1 receptor cell-based aequorin bioluminescence antagonist assay. To be noted: CHO-K1 cells expressing human H1 and aequorin; histamine at EC80; read-out: H1 Antagonist EC50. Summed up: (§1)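 CHO-K1 cells stably expressing human H1 or H4 plus mitochondrial aequorin (H4 also with Gα16), loaded with 5 μM coelenterazine-h for 4 h at ~21 °C. Compounds preincubated 15 min at room temperature, then histamine at EC80 added.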

For experiment [2], the target named is T2, human H4 (Homo sapiens, UniProt Q9H3N8).
T2 construct: host or cells: CHO-K1, also expressing mitochondrion-targeted aequorin and human Gα16
T2 sequence (Q9H3N8 whole entry): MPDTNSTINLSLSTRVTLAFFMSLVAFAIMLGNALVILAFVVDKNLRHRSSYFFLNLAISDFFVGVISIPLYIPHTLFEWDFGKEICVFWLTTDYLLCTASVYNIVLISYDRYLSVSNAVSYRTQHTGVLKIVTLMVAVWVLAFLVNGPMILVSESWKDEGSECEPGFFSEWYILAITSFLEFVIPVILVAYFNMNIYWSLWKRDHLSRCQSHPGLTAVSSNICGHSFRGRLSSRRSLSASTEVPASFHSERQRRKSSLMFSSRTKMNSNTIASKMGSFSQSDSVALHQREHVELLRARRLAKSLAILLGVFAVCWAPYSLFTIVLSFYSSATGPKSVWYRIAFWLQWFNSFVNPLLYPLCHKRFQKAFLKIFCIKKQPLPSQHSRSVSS
Nature of the experiment: In vitro histamine H4 receptor cell-based aequorin bioluminescence antagonist assay. Particulars: CHO-K1 cells expressing human H4, aequorin and Gα16; histamine at EC80. The procedure, abridged:
as §1

T1 sequence (P35367 whole entry): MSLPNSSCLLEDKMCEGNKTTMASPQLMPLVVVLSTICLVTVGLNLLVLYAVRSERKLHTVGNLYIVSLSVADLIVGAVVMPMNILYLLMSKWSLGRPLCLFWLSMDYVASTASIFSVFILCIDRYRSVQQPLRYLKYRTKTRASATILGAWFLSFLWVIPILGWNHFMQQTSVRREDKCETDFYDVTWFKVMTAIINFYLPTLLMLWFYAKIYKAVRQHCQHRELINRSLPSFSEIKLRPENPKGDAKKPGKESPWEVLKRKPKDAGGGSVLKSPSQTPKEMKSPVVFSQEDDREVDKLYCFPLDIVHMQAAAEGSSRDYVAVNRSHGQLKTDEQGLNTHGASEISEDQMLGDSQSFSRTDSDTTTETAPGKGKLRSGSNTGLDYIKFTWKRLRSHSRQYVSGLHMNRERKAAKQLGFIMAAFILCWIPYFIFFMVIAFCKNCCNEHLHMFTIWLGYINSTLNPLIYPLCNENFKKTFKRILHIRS

Broadly, the EC50 is the midpoint of the concentration-response curve. `CCN(CCCCO)c1ncnc2scc(C)c12` [Example 207, 4-[ethyl({5-methylthieno[2,3-d]pyrimidin-4-yl})amino]butan-1-ol]: the EC50 in experiment [1] and in experiment [2] was greater than 10 µM each time.

With `Cc1csc2ncnc(N3Cc4ccccc4C3)c12` [Example 208, 2-{5-methylthieno[2,3-d]pyrimidin-4-yl}-2,3-dihydro-1H-isoindole], the EC50 in experiment [1] and in experiment [2] was greater than 10 µM in each case.

With `Cc1csc2ncnc(N(C)Cc3ccccc3)c12` [Example 209, N-benzyl-N,5-dimethylthieno[2,3-d]pyrimidin-4-amine], the EC50 in experiment [1] and in experiment [2] was greater than 10 µM in each case.

Regarding `CCN(c1ncnc2scc(C)c12)C1CCCCC1` [Example 210, N-cyclohexyl-N-ethyl-5-methylthieno[2,3-d]pyrimidin-4-amine], the EC50 in experiment [1] and in experiment [2] was greater than 10 µM throughout.

Consider `Cc1csc2ncnc(N3CCC(C(N)=O)CC3)c12` [Example 211, 1-{5-methylthieno[2,3-d]pyrimidin-4-yl}piperidine-4-carboxamide], for which the EC50 in experiment [1] and in experiment [2] was greater than 10 µM throughout.

In the case of `CC(=O)N[C@H]1CCN(c2ncnc3scc(C)c23)C1` [Example 212, N-[(3S)-1-{5-methylthieno[2,3-d]pyrimidin-4-yl}pyrrolidin-3-yl]acetamide], the EC50 in experiment [1] and in experiment [2] was greater than 10 µM each time.

Take `Cc1csc2ncnc(N3CCCC(C(N)=O)C3)c12` (stereo not drawn) [Example 213, 1-{5-methylthieno[2,3-d]pyrimidin-4-yl}piperidine-3-carboxamide]: the concentration for a half-maximal effect (EC50) in experiment [1] and in experiment [2] was greater than 10 µM throughout.

`Cc1csc2ncnc(N3CCCC4CCCCC43)c12` (stereo not drawn) [Example 222, 1-{5-methylthieno[2,3-d]pyrimidin-4-yl}-decahydroquinoline]: the concentration giving a half-maximal response (EC50) in experiment [1] and in experiment [2] was greater than 10 µM each time.

`C=CCN(c1ncnc2scc(C)c12)C1CCCCC1` [Example 223, N-cyclohexyl-5-methyl-N-(prop-2-en-1-yl)thieno[2,3-d]pyrimidin-4-amine]: the EC50 in experiment [1] and in experiment [2] was greater than 10 µM throughout.

As to `Cc1csc2ncnc(N(Cc3ccccc3)C(C)C)c12` [Example 225, N-benzyl-5-methyl-N-(propan-2-yl)thieno[2,3-d]pyrimidin-4-amine], the EC50 in experiment [1] and in experiment [2] was greater than 10 µM each time.

Regarding `Cc1csc2ncnc(N(C)CC(O)c3ccccc3)c12` (stereo not drawn) [Example 227, 2-[methyl({5-methylthieno[2,3-d]pyrimidin-4-yl})amino]-1-phenylethan-1-ol], the EC50 in experiment [1] and in experiment [2] was greater than 10 µM in each case.

For `Cc1csc2ncnc(N3CCC(O)(O)CC3)c12` [Example 228, 1-{5-methylthieno[2,3-d]pyrimidin-4-yl}piperidine-4,4-diol], the EC50 in experiment [1] and in experiment [2] was greater than 10 µM each time.

Turning to `CCOC(=O)N1CCN(c2ncnc3scc(C)c23)CC1` [Example 230], the EC50 in experiment [1] and in experiment [2] was greater than 10 µM each time.

For `Cc1csc2ncnc(N(CCC#N)Cc3cccnc3)c12` [Example 232, 3-({5-methylthieno[2,3-d]pyrimidin-4-yl}(pyridin-3-ylmethyl)amino)propanenitrile], the EC50 in experiment [1] and in experiment [2] was greater than 10 µM each time.

Regarding `Cc1csc2ncnc(N3CCN(c4ccccc4)CC3)c12` [Example 233, 1-{5-methylthieno[2,3-d]pyrimidin-4-yl}-4-phenylpiperazine], the EC50 in experiment [1] and in experiment [2] was greater than 10 µM throughout.

Turning to `Cc1csc2ncnc(N3CCN(c4ccccn4)CC3)c12` [Example 234, 1-{5-methylthieno[2,3-d]pyrimidin-4-yl}-4-(pyridin-2-yl)piperazine], the EC50 in experiment [1] and in experiment [2] was greater than 10 µM throughout.

Turning to `Cc1csc2ncnc(N(CCO)[C@H](C)c3ccccc3)c12` [Example 236, 2-({5-methylthieno[2,3-d]pyrimidin-4-yl}[(1R)-1-phenylethyl]amino)ethan-1-ol], the EC50 in experiment [1] and in experiment [2] was greater than 10 µM throughout.

For the molecule `Cc1csc2ncnc(N(CCCO)Cc3ccccn3)c12` [Example 237, 3-({5-methylthieno[2,3-d]pyrimidin-4-yl}(pyridin-2-ylmethyl)amino)propan-1-ol], the EC50 in experiment [1] and in experiment [2] was greater than 10 µM throughout.

As to `Cc1csc2ncnc(N(C)CC(O)c3ccc(O)cc3)c12` (stereo not drawn) [Example 238, 4-{1-hydroxy-2-[methyl({5-methylthieno[2,3-d]pyrimidin-4-yl})amino]ethyl}phenol], the EC50 in experiment [1] and in experiment [2] was greater than 10 µM throughout.

`Cc1csc2ncnc(N3CCN(C4CCCCC4)CC3)c12` [Example 239, 1-cyclohexyl-4-{5-methylthieno[2,3-d]pyrimidin-4-yl}piperazine]: the EC50 in experiment [1] and in experiment [2] was greater than 10 µM throughout.

Regarding `Cc1csc2ncnc(N3CCCN(Cc4ccccc4)CC3)c12` [Example 242, 1-benzyl-4-{5-methylthieno[2,3-d]pyrimidin-4-yl}-1,4-diazepane], the concentration giving a half-maximal response (EC50) in experiment [1] and in experiment [2] was greater than 10 µM throughout.

`Cc1csc2ncnc(N3CCN(c4ccc(O)cc4)CC3)c12` [Example 243, 4-(4-{5-methylthieno[2,3-d]pyrimidin-4-yl}piperazin-1-yl)phenol]: the EC50 in experiment [1] and in experiment [2] was greater than 10 µM in each case.

Take `Cc1csc2ncnc(N(CCN(C)C)Cc3ccccc3)c12` [Example 244, N-benzyl-N-[2-(dimethylamino)ethyl]-5-methylthieno[2,3-d]pyrimidin-4-amine]: the EC50 in experiment [1] and in experiment [2] was greater than 10 µM each time.

With `Cc1csc2ncnc(N3CCN(c4ccccc4F)CC3)c12` [Example 245, 1-(2-fluorophenyl)-4-{5-methylthieno[2,3-d]pyrimidin-4-yl}piperazine], the EC50 in experiment [1] and in experiment [2] was greater than 10 µM each time.

In the case of `Cc1csc2ncnc(N3CCN(c4ccc(F)cc4)CC3)c12` [Example 246, 1-(4-fluorophenyl)-4-{5-methylthieno[2,3-d]pyrimidin-4-yl}piperazine], the EC50 in experiment [1] and in experiment [2] was greater than 10 µM in each case.

Turning to `Cc1csc2ncnc(N(C)C[C@H](O)c3ccc(O)c(O)c3)c12` [Example 248, 4-[(1R)-1-hydroxy-2-[methyl({5-methylthieno[2,3-d]pyrimidin-4-yl})amino]ethyl]benzene-1,2-diol], the EC50 in experiment [1] and in experiment [2] was greater than 10 µM in each case.

As for `CCOC(=O)CC1C(=O)NCCN1c1ncnc2scc(C)c12` (stereo not drawn) [Example 249, ethyl 2-(1-{5-methylthieno[2,3-d]pyrimidin-4-yl}-3-oxopiperazin-2-yl)acetate], the EC50 in experiment [1] and in experiment [2] was greater than 10 µM in each case.

Turning to `Cc1cccc(N2CCN(c3ncnc4scc(C)c34)CC2)c1C` [Example 254, 1-(2,3-dimethylphenyl)-4-{5-methylthieno[2,3-d]pyrimidin-4-yl}piperazine], the EC50 in experiment [1] and in experiment [2] was greater than 10 µM in each case.

In the case of `Cc1ccc(N2CCN(c3ncnc4scc(C)c34)CC2)cc1C` [Example 257, 1-(3,4-dimethylphenyl)-4-{5-methylthieno[2,3-d]pyrimidin-4-yl}piperazine], the EC50 in experiment [1] and in experiment [2] was greater than 10 µM each time.

On to `COc1ccc(N2CCN(c3ncnc4scc(C)c34)CC2)cc1` [Example 261, 1-(4-methoxyphenyl)-4-{5-methylthieno[2,3-d]pyrimidin-4-yl}piperazine], for which the EC50 in experiment [1] and in experiment [2] was greater than 10 µM in each case.

As to `COc1ccccc1N1CCN(c2ncnc3scc(C)c23)CC1` [Example 262, 1-(2-methoxyphenyl)-4-{5-methylthieno[2,3-d]pyrimidin-4-yl}piperazine], the EC50 in experiment [1] and in experiment [2] was greater than 10 µM each time.

Take `COc1cccc(N2CCN(c3ncnc4scc(C)c34)CC2)c1` [Example 263, 1-(3-methoxyphenyl)-4-{5-methylthieno[2,3-d]pyrimidin-4-yl}piperazine]: the EC50 in experiment [1] and in experiment [2] was greater than 10 µM throughout.

`COc1ccc(CCN(C)c2ncnc3scc(C)c23)cc1OC` [Example 264, N-[2-(3,4-dimethoxyphenyl)ethyl]-N,5-dimethylthieno[2,3-d]pyrimidin-4-amine]: the EC50 in experiment [1] and in experiment [2] was greater than 10 µM throughout.

Turning to `Cc1csc2ncnc(N3CCN(c4cccc(Cl)c4)CC3)c12` [Example 265, 1-(3-chlorophenyl)-4-{5-methylthieno[2,3-d]pyrimidin-4-yl}piperazine], the EC50 in experiment [1] and in experiment [2] was greater than 10 µM throughout.

For the molecule `Cc1csc2ncnc(N3CCN(c4ccc(F)cc4F)CC3)c12` [Example 267, 1-(2,4-difluorophenyl)-4-{5-methylthieno[2,3-d]pyrimidin-4-yl}piperazine], the EC50 in experiment [1] and in experiment [2] was greater than 10 µM throughout.

In the case of `Cc1csc2ncnc(N(Cc3cccnc3)Cc3cccnc3)c12` [Example 268, 5-methyl-N,N-bis(pyridin-3-ylmethyl)thieno[2,3-d]pyrimidin-4-amine], the EC50 in experiment [1] and in experiment [2] was greater than 10 µM in each case.

On to `CCN(CC)CCN(Cc1ccccc1)c1ncnc2scc(C)c12` [Example 272, N-benzyl-N-[2-(diethylamino)ethyl]-5-methylthieno[2,3-d]pyrimidin-4-amine], for which the EC50 in experiment [1] and in experiment [2] was greater than 10 µM each time.

Take `Cc1csc2ncnc(N(C)Cc3cccc4ccccc34)c12` [Example 274, N,5-dimethyl-N-(naphthalen-1-ylmethyl)thieno[2,3-d]pyrimidin-4-amine]: the EC50 in experiment [1] and in experiment [2] was greater than 10 µM each time.

Take `Cc1ccc(Cl)cc1N1CCN(c2ncnc3scc(C)c23)CC1` [Example 275, 1-(5-chloro-2-methylphenyl)-4-{5-methylthieno[2,3-d]pyrimidin-4-yl}piperazine]: the concentration for a half-maximal effect (EC50) in experiment [1] and in experiment [2] was greater than 10 µM throughout.

These data come from patent US20100063047A1 (KALYPSYS, INC., priority 2008, published 2010).
